This is an account of results in article doi:10.1101/2020.10.13.20211417v1 (medRxiv, 2020).

A short description of this data set: Noncompartmental plasma pharmacokinetics of CN-105 in CATCH participants. The class given is in vivo, human. Particulars: for clearance / Vd / half-life: human, 1 mg/kg; for Vd: Vz.

As a reminder, the Vz is the apparent volume that relates the amount in the body to the concentration in plasma or blood. A higher Vz goes with extensive tissue distribution. The clearance is the volume of plasma or blood freed of the substance per unit of time. Usually Vd stands for a proportionality between amount in the body and measured concentration, not a real space. Low readings indicate confinement near the circulation, high ones extensive tissue distribution. Usually half-life stands for how long it takes for the measured level to halve. Read a low half-life as rapid decline. Turning to Ac-VSRRR-NH2 [CN-105], where the note is “Dose 1:Dose 13, SD”, the “Accumulation, mean (SD) ratio of AUCs” value was 1.3 (0.4). Further, the CL reads like this: (Maximum, N=6) 7.7 L/h; (Minimum, N=6) 4.6 L/h. This substance came in with a Vz (Maximum, N=6) of 56.8 L and a Vz (Minimum, N=6) of 25.2 L. Further, the t1/2 reads like this: (Maximum, N=6) 8.7 h; (Minimum, N=6) 2.3 h. Moreover, the “λz,ss” value by setting is: (Maximum, N=6) 0.3 h⁻¹; (Mean, N=6, SD 0.1, after last dose) 0.2 h⁻¹; (Median, N=6) 0.2 h⁻¹; (Minimum, N=6) 0.1 h⁻¹. In addition, the “Mean (SD) maximum concentrations” value (dose 13, 1.0 mg/kg IV over 30 min every 6 h, plasma, LC-MS/MS, SD 1335.9) is given as 5638.3 ng/mL. This substance gave a clearance (plasma, intravenous) of 122 mL/min and a clearance (plasma, iv) of 113 mL/min. Further, the Vd reads like this: (plasma, intravenous, Mean, N=6, SD 12.1) 41.2 L; (plasma, intravenous, Median, N=6) 37.2 L. Further, the half-life is 4.5 h (plasma, intravenous, t1/2, Mean, N=6, SD 2.2, terminal phase) and 3.8 h (plasma, intravenous, t1/2, Median, N=6).
